Laboratory results from patent publication US7056713B1, “Urate oxidase” (Duke University, priority 1998, dated 2006).

Experiments:
[1] = compared with uric acid; background statement; cited from earlier work
[2] = system: recombinant pig-baboon chimeric uricase (PBC uricase; aa 1–225 of porcine uricase (SEQ ID NO:7) and aa 226–304 of baboon uricase (SEQ ID NO:6)), unmodified …; test: KM of unmodified recombinant PBC uricase (studies not shown); type: biochemical, pig-baboon chimera
Experimental: (§1) In this PEGylation reaction all of the uricase subunits were modified (FIG. 1, lane 7). In studies not shown, the PEGylated enzyme had similar kinetic properties to unmodified PBC uricase (KM 10–20 μM). […] The PEGylated enzyme could also be lyophilized and then reconstituted in PBS, pH 7.2, with minimal loss of activity. In other experiments, we compared the activities of this preparation of PEG-PBC uricase with the A. flavus uricase clinical preparation. […] However, in PBS, pH 7.2, the PEG-PBC and unmodified fungal enzymes differed in uricase activity by <2 fold.

[3] = system: PEGylated recombinant pig-baboon chimeric uricase (PEG-PBC uricase; PBC uricase SEQ ID NO:2); test: KM of PEGylated recombinant PBC uricase (studies not shown); type: biochemical, pig-baboon chimera; conditions: similar kinetic properties to unmodified
Experimental: 100 mg of concentrated Sepahacryl S-200 PBC uricase (5 mg/ml, 2.9 μmol enzyme; 84.1 μmol lysine) in 0.1 M Na2CO3, pH 10.2 was allowed to react with a 2-fold excess (mol of PEG:mol uricase lysines) of an activated form of PEG at 4° for 60 min. The PEGylated uricase was freed from any unreacted or hydrolyzed PEG by tangential flow diafiltration. In this step the reaction was diluted 1:10 in 0.1 M Na2CO3, pH 10.2 and diafiltered vs. 3.5 vol 0.1 M Na2CO3, pH 10.2, then vs. 3.5 vol 0.05 M sodium phosphate, 0.15 M NaCl, pH 7.2. The filter-sterilized enzyme was stable at 4° for at least one month.
In this PEGylation reaction all of the uricase subunits were modified (FIG. 1, lane 7). In studies not shown, the PEGylated enzyme had similar kinetic properties to unmodified PBC uricase (KM 10–20 μM). Importantly, the modified enzyme was much more soluble than the unmodified enzyme at physiologic pH (>5 mg/ml in PBS vs. <1 mg/ml). The PEGylated enzyme could also be lyophilized and then reconstituted in PBS, pH 7.2, with minimal loss of activity. In other experiments, we compared the activities of this preparation of PEG-PBC uricase with the A. flavus uricase clinical preparation. […] However, in PBS, pH 7.2, the PEG-PBC and unmodified fungal enzymes differed in uricase activity by <2 fold.

[4] = biological target: T1, Aspergillus flavus uricase, clinical preparation (unmodified fungal enzyme) (Aspergillus flavus, UniProt Q00511); test: Kinetic comparison of A. flavus uricase clinical preparation with PEG-PBC uricase; type: biochemical; conditions: pH 8.6 in borate buffer; versus PEG-PBC uricase
T1 sequence (Q00511 2-302 limits assumed): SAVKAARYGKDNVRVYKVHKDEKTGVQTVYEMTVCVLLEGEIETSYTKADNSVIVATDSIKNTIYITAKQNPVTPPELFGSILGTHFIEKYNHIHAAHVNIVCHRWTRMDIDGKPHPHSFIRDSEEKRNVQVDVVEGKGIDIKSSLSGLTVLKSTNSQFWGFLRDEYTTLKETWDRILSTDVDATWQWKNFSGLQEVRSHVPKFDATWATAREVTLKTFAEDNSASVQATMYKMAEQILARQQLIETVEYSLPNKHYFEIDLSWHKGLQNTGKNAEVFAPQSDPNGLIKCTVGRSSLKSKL
Experimental: as §1

[5] = human, in vivo; cited from earlier work

Structure (SMILES): NC(=O)NC1NC(=O)NC1=O (stereo not shown) [allantoin]
- solubility relative to uric acid (times more soluble) [1]: 80–100 times

Structure (SMILES): O=c1[nH]c(=O)c2[nH]c(=O)[nH]c2[nH]1 [uric acid]
- Km [2]: 10 to 20 µM
- Km [3]: 10 to 20 µM
- KM, fold higher than PEG-PBC uricase [4]: 2 fold
- Vmax, fold higher than PEG-PBC uricase [4]: 10–14 fold

Structure (SMILES): Oc1ncnc2[nH]ncc12 [allopurinol]
- patients who develop allergic reactions [5]: ~2%
- severe hypersensitivity syndrome [5]: ~0.4%
